These are literature values, as cited in patent US11213604B2, “Composition for dressing cutaneous lesions and manufacturing method thereof” (priority 2016, dated 2022).

The test system of the data set is cutaneous leishmanial ulcers. Conditions: protocols (1), (3), (2) of Stahl et al., BMC Infectious Diseases 2014.

For the substance sodium stilbogluconate, the Median healing time is 9 weeks.
